Experimental findings from US20110201648A1, “POLY-HETEROARYL DERIVATIVES FOR THE TREATMENT OF CANCER” (INSTITUT CURIE, priority 2008, published 2011) are described below.

A short description of series [1]: UV-Vis titrations for solubility. The format is physicochemical. The procedure:
The study of UV-vis properties of pyridine-based polyheteroaromatic compounds detailed in this study enable the determination of their solubility in various conditions (DMSO, H2O and cacodylate buffers (10 mM sodium cacodylate+100 mM NaCl (for Caco.Na) or KCl (for Caco.K)): the simplest method for this is to measure the absorption spectra of compound 3 at various concentrations (from 0 to 32 μM); solubility of compound 3 is thus evaluated through the reporting of its absorbance at a given wavelength (herein 338 nm (A338)) as a function of the concentration of compound 3 and applying the Beer-Lambert law.

Series [2] addresses hPOT1. In words: Electrophoretic mobility shift assay, POT1/22AG binding. More on the design: species or system human. The settings on record: 30 nM hPOT1, 20 nM 32P-22AG, 30 min room temperature. Here is the method:
An electrophoretic mobility shift assay using hPOT1 was performed on the telomeric 22AG oligonucleotide (see above). 22AG was labeled at the 5′ end with [γ-^32P]-ATP using T4 polynucletide kinase. Purified recombinant hPOT1 was produced in a baculovirus expression system. The POT1/22AG binding assay was performed in a total volume of 10 μl containing 50 mM HEPES, pH 7.9, 100 mM NaCl, 0.1 mM EDTA, 4% w/v sucrose, 2% v/v glycerol, 0.1 mg/ml BSA, 0.02% w/v bromophenol blue, 30 nM hPOT1, 20 nM [[…]-^32P]-22AG. Different concentrations of compound 3 (10, 1, 0.1 and 0.01 μM) were added with hPOT1 to the solution and the mixture was incubated at room temperature for 30 min. Each individual sample was separated by electroporesis on 1% agarose gel in 0.5×Tris-Borate-EDTA buffer. The gel was run at 80V for 35 min, dried on whatman DE81 paper and radiaoactivity visualized by a phosphorimager (Typhoon 9210, Amersham). Analysis of the data was carried out by ImageQuant software (Amersham) and results were expressed as a percentage of the POT1-22AG complex obtained in the untreated control (defined as 100%) (see FIG. 14).
A general note: Mobility shift assays separate free from complexed probe on a gel.

The test system of series [3] is ds17 (17 base-pair duplex-DNA). Briefly: Fluorescence titration with ds17. The format is binding. The settings on record: 0.25 μM compound, cacodylate buffer + 100 mM KCl, λex=340 nm. The procedure:
The quadruplex-over duplex-selectivity is evaluated through fluorescence titrations by comparison of experiments carried out with 22AG (see above) and with a short duplex-DNA: ds17, which is a 17 base-pair duplex-DNA that represents a biological sequence used in previous studies (28); the sequences of the two complementary strands are the following: [5′-CCAGTTCGTAGTAACCC-3′]/[5′-GGGTTACTACGAACTGG-3′]. Duplex-structure is prepared by heating the two corresponding complementary strands at 90° C. for 5 min in a 10 mM sodium cacodylate buffer pH 7.3, 100 mM KCl followed by a slow cooling over 6 hrs. Concentrations are determined by UV-Vis measurements (after thermal denaturation, 5 min at 85° C.) at 260 nm before use.

For series [4], the system named is c-myc quadruplex-DNA. In words: Fluorescence titration with c-myc. It is filed as binding. The note with it: 0.25 μM compound, cacodylate buffer + 100 mM KCl, λex=340 nm. Here is the method:
The intra-quadruplex selectivity is evaluated through fluorescence titrations by comparison of experiments carried out with 22AG (see above) and with two other quadruplex-structures: c-myc and c-kit2. The formation of these two quadruplex-DNAs is currently highly suspected in the promoter region of c-myc (see above) and c-kit (22; 29 and 30)oncogenes. The sequences are the following: c-myc: [5′-[…]-3′] and c-kit2: [(5′-[…]-3′]; Quadruplex-structures are prepared by heating the corresponding oligonucleotide at 90° C. for 5 min in a 10 mM sodium cacodylate buffer pH 7.2, 100 mM KCl and cooling in ice to favor the intramolecular folding by kinetic trapping. Concentrations are determined by UV-Vis measurements (after thermal denaturation, 5 min at 85° C.) at 260 nm before use.

Series [5] deals with 22AG quadruplex-DNA (human telomeric sequence). In words: Fluorescence titration with 22AG. It is filed as binding. The settings on record: 0.25 μM compound, λex=340 nm. The procedure:
The quadruplex-DNA used herein is 22AG: it results from the folding of a 22 nt oligonucleotide that mimics the human telomeric sequence: 22AG is [5′-AG3(T2AG3)3-3′]. Quadruplex-structure from 22AG is prepared by heating the corresponding oligonucleotide at 90° C. for 5 min in a 10 mM sodium cacodylate buffer pH 7.2, 100 mM NaCl (for 22AG Na) or KCl (for 22AG K) and cooling in ice to favor the intramolecular folding by kinetic trapping. Concentrations are determined by UV-Vis measurements (after thermal denaturation, 5 min at 85° C.) at 260 nm before use. (see FIG. 7A and FIG. 7B).

`c1cc(-c2cnc(-c3cccc(-c4cnco4)n3)o2)nc(-c2cnc(-c3cccc(-c4cnco4)n3)o2)c1` [compound 3, 2,6-bis{2-[6-(oxazol-5-yl)pyridin-2-yl]oxazol-5-yl}pyridine] had a melting point of over 250 °C. Besides, the solubility entry in series [1] (DMSO, H2O and aqueous cacodylate buffers (Na+ or K+-rich), A338, 0 to 32 μM) was “soluble in all the solvent systems used herein”. Further, the self-aggregation entry in series [1] (within the 0 to 32 μM concentration range, all solvent systems) is “does not self-aggregate”. The IC50 in series [2] is 300 nM. Besides, the “fluorescence of compound upon addition of ds17” value in series [3] is “do not result in a progressive quench of the fluorescence”. For the same compound, the “fluorescence of compound upon addition of c-myc” value in series [4] is listed as “progressive quench of the fluorescence”. Moreover, the “fluorescence of compound upon addition of 22AG K” value in series [5] (cacodylate buffer + 100 mM KCl) is given as “progressive quench of the fluorescence”. The “fluorescence of compound upon addition of 22AG Na” value in series [5] (cacodylate buffer + 100 mM NaCl) was “progressive quench of the fluorescence”.

The term IC50 denotes the concentration at which inhibition is half-maximal. For orientation: melting point means the temperature, or range, at which the solid turns liquid.
